Laboratory results taken from publication PMC3303165 (Dalton Transactions (Cambridge, England : 2003), 2012).

Experiments:
[1] = tested on: Plasmodium falciparum Dd2 (chloroquine resistant strain); assay type: cell-based; conditions: DD2, read-out: Dd2: IC50
[2] = tested on: Plasmodium falciparum D10 (chloroquine sensitive strain); assay type: cell-based; conditions: D10, read-out: D10: IC50
[3] = cited from earlier work
heme aggregation = conditions: acetate buffer (pH=4.9)/n-octanol interface; cited from earlier work

SMILES	IC50 [1] [µM]	IC50 [2] [µM]	D(pH=4.9) water/n-octanol distribution coefficient ([3]; pH 4.9)	D(pH=6.6) water/n-octanol distribution coefficient ([3]; pH 6.6)	HAIR50 (drug to hemin ratio required to inhibit 50% of heme aggregation) (heme aggregation)
CCN(CC)CCCC(C)Nc1ccnc2cc(Cl)ccc12 (stereo not shown) [CQ, chloroquine]	0.143 ± 0.014	0.025 ± 0.009	0.15 ± 0.01	6.61 ± 0.64	2.92
Oc1ccccc1CN=CCNc1ccnc2cc(Cl)ccc12 [L^3, N-(2-((2-hydroxyphenyl)methylimino)ethyl)-7-chloroquinolin-4-amine]	> 30	0.55 ± 0.3			
Clc1ccc2c(NCCN(Cc3ccccn3)Cc3ccccn3)ccnc2c1 [L^4, N-(2-(bis((pyridin-2-yl)methyl)amino)ethyl)-7-chloroquinolin-4-amine]	1.3 ± 0.1	1.3 ± 0.1			

Further lines, with some results ahead:

IC50 [1] [µM]	IC50 [2] [µM]	SMILES	D(pH=4.9) water/n-octanol distribution coefficient ([3]; pH 4.9)	D(pH=6.6) water/n-octanol distribution coefficient ([3]; pH 6.6)	HAIR50 (drug to hemin ratio required to inhibit 50% of heme aggregation) (heme aggregation)
0.25 ± 0.06	0.19 ± 0.03	Cn1ccnc1CNCCNc1ccnc2cc(Cl)ccc12 [L^2, N-(2-((1-methyl-1H-imidazol-2-yl)methylamino)ethyl)-7-chloroquinolin-4-amine]			
0.22 ± 0.03	0.03 ± 0.002	Clc1ccc2c(NCCNCc3ccccn3)ccnc2c1 [L^1, N-(2-((pyridin-2-yl)methylamino)ethyl)-7-chloroquinolin-4-amine]			
